# Results published in US6858589B2, “Methods of and compositions for potentiating the action of agents active on cell wall sites of the susceptible bacteria” (priority 1996, dated 2005).
# Where two headings read alike, the source gives them in different places.
# Key:
# [1] = test system: blood culture isolate of cMRSA; experiment: Kill kinetics and regrowth patterns of cMRSA exposed to gentamicin profiles and constant beta-lactam; type: cell-based, Staphylococcus aureus; details: for Outcome of exposure: each agent alone
# Method: FIGS. 5a and 5b Kill kinetics and regrowth patterns of a clinical isolate of cMRSA.
# The CMRSA isolate was cultured in the presence of gentamicin (Delta West, Bentleigh, Australia). An overnight culture of cMRSA in brain heart infusion broth (BHIB) (Oxoid, Bainstoke, England) was diluted to 10^7 CFU/ml in 0.1% peptone water (Oxoid, Bainstoke, England). A 1 ml sample of the 10^7 CFU/ml culture was added to the experimental culture broth, resulting in an initial density of 10^6 CFU/ml. In vitro concentration-time modeling of clinical plasma gentamicin concentration-time profiles assumed linear extrapolation of in vivo data as reported previously.^18 (Bastone et al Antimicrobial Agents and Chemotherapy 37(4): 914-917, 1993). […] Other profiles were constructed by linear extrapolation of these profiles and included 7 and 16 mg/l bolus and infusion profiles. Colony counts were performed at times 0, 0.5, 2.5, 4.5, 6.5, 8.5, 10.5, 24.5 and 48.5 hours for bolus profiles and times 0, 1, 3, 5, 7, 9, 11, 25 and 49 hours for infusion profiles.
# In the experiments involving cephazolin the concentration was maintained at 4 mg/l in the BHIB for the entire 48.5 hours. For the experiments involving flucloxacillin the concentration of flucloxacillin was maintained at 2 mg/l for 48.5 hours. Colony counts were performed at times 0, 0,5, 2.5, 4.5, 6.5, 8.5, 10.5, 24.5 and 48.5 hours. […] These included cMRSA in a drug free broth, cMRSA exposed to a bolus profile of gentamicin with a target Cpeak 30 of 6 mg/l only, cMRSA exposed to […] of flucloxacillin only.
# All experiments involved six replicates. Gentamicin concentrations were measured at times 0, 0.16, 0.33, 0.5, 2.5, 4.5, 6.5, 8.5, 10.5, 24.5 and 48.5 hours. Gentamicin assay concentrations were determined by fluorescence polarisation immunoassay (AxSYM, Abbot, Ill., U.S.A.) which has a threshold for detection of 0.3 mg/liter. […] (Gibaldi et al, pharmaceutics 2nd edn, 1982).
# The blood culture cMRSA isolate was exposed to gentamicin in vitro simulating an in vivo bolus dosing regimen with varying 30 minute post dose concentrations of gentamicin. The same organism was then exposed to gentamicin in vitro simulating an in vivo bolus dosing regime with a 30 minute post dose concentration of 6 mg/l and constant concentration of 4 mg/l of cephazolin or 2 mg/l of flucloxacillin for 48 hours.
# [2] = test system: blood culture isolate of cMRSA; experiment: MIC and MBC for the cMRSA isolate; type: cell-based, Staphylococcus aureus; details: mecA positive
# Method: The student test was used for statistical analysis with a significant level of 0.05, it was performed using the Sigma Stat 32 program (SPSS Inc 1992-1997).
# E. coli NCTC 10418 = experiment: E. coli exposed to constant concentrations of cephazolin alone; type: cell-based, Escherichia coli
# Source text: In comparative experiments described in the examples herein, a reference strain of Escherichi coli (E. coli NCTC 10418) was exposed to constant concentrations of cephazolin in the culture medium (see FIGS. 1A and IIA). As these concentrations were varied, the growth of the bacterial culture was changed. […] As concentrations in the medium were increased, there was a major decline in numbers and a delay in regrowth.
# The organisms in the media were able to maintain their numbers in a reduced state even in the continuing presence of cephazolin. This outcome is due to the exclusion of cephalosporins by porin channels in the outer cell wall and to the action of cephalosporinase which keeps cephazolin levels at the site(s) of action below that required for full bactericidal effect.
# The cephalosporin effect reached a maximum when E. coli growth was reduced to 10 colony forming units(cfu)/ml (see FIG. IIB).
# [3] = test system: antibiotic resistant strain of Pseudomonas aeruoginosa isolated from a clinical patient; experiment: MIC, antibiotic resistant clinical Pseudomonas strain; type: cell-based, Pseudomonas aeruginosa
# [4] = test system: antibiotic resistant strain of Pseudomonas aeruoginosa isolated from a clinical patient; experiment: Tobramycin concentration-time profile kill study, resistant clinical strain; type: cell-based, Pseudomonas aeruginosa
# Method: The time boundaries for maintained exposures with aminoglycoside may be 1.0-16 hours, while the required maintained concentrations will be a function of the resistance of the organism as determined by the minimum inhibitory concentration (MIC) of the pathogen isolated in culture and time-concentration requirements of the organism(s) being treated.
# (§1) The range of aminoglycoside antibiotics was extended to include tobramycin, the bacterial species type was extended from Enterobacteriaceae to Pseudomonacea, and the organism response range broadened to include an antibiotic resistant strain in Pseudomonas studies.
# (§2) In contrast, the resistant clinical strain required a peak concentration of 18 mg/l combined with a maintained level of 1 mg/l.
# [5] = test system: Pseudomonas aeruoginosa, ATCC27853; experiment: Tobramycin concentration-time profile kill study, reference strain; type: cell-based, Pseudomonas aeruginosa; details: 8 mg/l at 1 hour, reducing until 8.5 hr, then fixed 0.8 mg/l for 16 hours
# Method: as §1, §2
# [6] = test system: Pseudomonas aeruoginosa, ATCC27853; experiment: MIC, Pseudomonas reference strain; type: cell-based, Pseudomonas aeruginosa
# [7] = 4 mg/l cephazolin alone throughout
smiles,measurement,setting,value
Cc1nnc(SCC2=C(C(=O)O)N3C(=O)[C@@H](NC(=O)Cn4cnnn4)[C@H]3SC2)s1 [cephazolin],Time at which early bactericidal effect was evident,[1]; [7],≤ 2.5 h
same,Time at which regrowth was evident,[1]; [7],24.5 h
same,Outcome of exposure,[1],complete kill or eradication was not achieved
same,MBC,[2],32 mg/L
same,MIC,[2],32 mg/L
same,Outcome of exposure,"E. coli NCTC 10418; cephalosporin alone, constant concentrations",not possible to produce a complete kill or eradication
same,E. coli growth at maximum cephalosporin effect,"E. coli NCTC 10418; constant concentrations of cephalosporin alone, up to 250 mg/l",10 cfu/ml
same,Growth of the culture,"E. coli NCTC 10418; lowest concentration of cephazolin, 1.0 mg/l",delayed in relation to control
same,Bacterial Count,"E. coli NCTC 10418; maintained cephazolin 0.5 mg/L, 0 h",5.88 ± 0.09 log 10 u/mL
same,Bacterial Count,"E. coli NCTC 10418; maintained cephazolin 0.5 mg/L, 2 h",7.43 ± 0.28 log 10 u/mL
same,Bacterial Count,"E. coli NCTC 10418; maintained cephazolin 0.5 mg/L, 8 h",8.67 ± 0.24 log 10 u/mL
same,Bacterial Count,"E. coli NCTC 10418; maintained cephazolin 0.5 mg/L, 24 h",8.82 ± 0.06 log 10 u/mL
same,Bacterial Count,"E. coli NCTC 10418; maintained cephazolin 1.0 mg/L, 0 h",5.83 ± 0.29 log 10 u/mL
same,Bacterial Count,"E. coli NCTC 10418; maintained cephazolin 1.0 mg/L, 2 h",6.21 ± 0.76 log 10 u/mL
same,Bacterial Count,"E. coli NCTC 10418; maintained cephazolin 1.0 mg/L, 8 h",8.59 ± 0.35 log 10 u/mL
same,Bacterial Count,"E. coli NCTC 10418; maintained cephazolin 1.0 mg/L, 24 h",8.79 ± 0.05 log 10 u/mL
same,Bacterial Count,"E. coli NCTC 10418; maintained cephazolin 2.0 mg/L, 0 h",5.88 ± 0.07 log 10 u/mL
same,Bacterial Count,"E. coli NCTC 10418; maintained cephazolin 2.0 mg/L, 2 h",3.70 ± 0.32 log 10 u/mL
same,Bacterial Count,"E. coli NCTC 10418; maintained cephazolin 2.0 mg/L, 8 h",4.98 ± 0.34 log 10 u/mL
same,Bacterial Count,"E. coli NCTC 10418; maintained cephazolin 2.0 mg/L, 24 h",8.79 ± 0.05 log 10 u/mL
same,Bacterial Count,"E. coli NCTC 10418; maintained cephazolin 4.0 mg/L, 0 h",5.88 ± 0.06 log 10 u/mL
same,Bacterial Count,"E. coli NCTC 10418; maintained cephazolin 4.0 mg/L, 2 h",3.61 ± 0.22 log 10 u/mL
same,Bacterial Count,"E. coli NCTC 10418; maintained cephazolin 4.0 mg/L, 8 h",4.38 ± 0.42 log 10 u/mL
same,Bacterial Count,"E. coli NCTC 10418; maintained cephazolin 4.0 mg/L, 24 h",6.14 ± 0.93 log 10 u/mL
same,Bacterial Count,"E. coli NCTC 10418; maintained cephazolin 12.5 mg/L, 0 h",5.85 ± 0.14 log 10 u/mL
same,Bacterial Count,"E. coli NCTC 10418; maintained cephazolin 12.5 mg/L, 2 h",3.11 ± 0.26 log 10 u/mL
same,Bacterial Count,"E. coli NCTC 10418; maintained cephazolin 12.5 mg/L, 8 h",2.18 ± 0.63 log 10 u/mL
same,Bacterial Count,"E. coli NCTC 10418; maintained cephazolin 12.5 mg/L, 24 h",4.77 ± 1.89 log 10 u/mL
same,Bacterial Count,"E. coli NCTC 10418; maintained cephazolin 50 mg/L, 0 h",5.93 ± 0.11 log 10 u/mL
same,Bacterial Count,"E. coli NCTC 10418; maintained cephazolin 50 mg/L, 2 h",2.17 ± 0.39 log 10 u/mL
same,Bacterial Count,"E. coli NCTC 10418; maintained cephazolin 50 mg/L, 8 h",1.55 ± 0.93 log 10 u/mL
same,Bacterial Count,"E. coli NCTC 10418; maintained cephazolin 50 mg/L, 24 h",1.56 ± 1.14 log 10 u/mL
same,Bacterial Count,"E. coli NCTC 10418; maintained cephazolin 75 mg/L, 0 h",5.82 ± 0.23 log 10 u/mL
same,Bacterial Count,"E. coli NCTC 10418; maintained cephazolin 75 mg/L, 2 h",2.09 ± 0.29 log 10 u/mL
same,Bacterial Count,"E. coli NCTC 10418; maintained cephazolin 75 mg/L, 8 h",1.11 ± 0.96 log 10 u/mL
same,Bacterial Count,"E. coli NCTC 10418; maintained cephazolin 75 mg/L, 24 h",1.05 ± 1.23 log 10 u/mL
same,Bacterial Count,"E. coli NCTC 10418; maintained cephazolin 100 mg/L, 0 h",5.85 ± 0.08 log 10 u/mL
same,Bacterial Count,"E. coli NCTC 10418; maintained cephazolin 100 mg/L, 2 h",2.01 ± 0.26 log 10 u/mL
same,Bacterial Count,"E. coli NCTC 10418; maintained cephazolin 100 mg/L, 8 h",0.86 ± 0.95 log 10 u/mL
same,Bacterial Count,"E. coli NCTC 10418; maintained cephazolin 100 mg/L, 24 h",0.70 ± 0.78 log 10 u/mL
same,Bacterial Count,"E. coli NCTC 10418; maintained cephazolin 200 mg/L, 0 h",5.86 ± 0.04 log 10 u/mL
same,Bacterial Count,"E. coli NCTC 10418; maintained cephazolin 200 mg/L, 2 h",2.16 ± 0.24 log 10 u/mL
same,Bacterial Count,"E. coli NCTC 10418; maintained cephazolin 200 mg/L, 8 h",0.78 ± 0.87 log 10 u/mL
same,Bacterial Count,"E. coli NCTC 10418; maintained cephazolin 200 mg/L, 24 h",1.43 ± 0.74 log 10 u/mL
same,Bacterial Count,"E. coli NCTC 10418; maintained cephazolin 250 mg/L, 0 h",5.81 ± 0.03 log 10 u/mL
same,Bacterial Count,"E. coli NCTC 10418; maintained cephazolin 250 mg/L, 2 h",1.82 ± 0.44 log 10 u/mL
same,Bacterial Count,"E. coli NCTC 10418; maintained cephazolin 250 mg/L, 8 h",1.22 ± 0.96 log 10 u/mL
same,Bacterial Count,"E. coli NCTC 10418; maintained cephazolin 250 mg/L, 24 h",1.61 ± 0.86 log 10 u/mL
COc1cccc(OC)c1C(=O)N[C@@H]1C(=O)N2[C@@H]1SC(C)(C)[C@@H]2C(=O)O [methicillin],MBC,"[2]; Staphylococcus aureus, read-out: MBC",> 32 mg/L
same,MIC,"[2]; Staphylococcus aureus, read-out: MIC",32 mg/L
NC[C@H]1O[C@H](O[C@H]2[C@H](O)[C@@H](O[C@H]3O[C@H](CO)[C@@H](O)[C@H](N)[C@H]3O)[C@H](N)C[C@@H]2N)[C@H](N)C[C@@H]1O [tobramycin],MIC,[3],2 to 4 µg/mL
same,Maintained level required,[4]; combined with 18 mg/l peak,1 mg/L
same,Peak concentration required,[4]; combined with maintained level,18 mg/L
same,Outcome of tobramycin profile,[5],complete kill
same,MIC,[6],1 µg/mL
Cc1onc(-c2c(F)cccc2Cl)c1C(=O)N[C@@H]1C(=O)N2[C@@H]1SC(C)(C)[C@@H]2C(=O)O [flucloxacillin],Outcome of exposure,[1],complete kill or eradication was not achieved
